Key:
Type in all cases: physicochemical
[1] = Inhibition of dissolution in alkali developing solution; design: key: A: no change was visually noticed in the state of film; C: the surface was roughened or a part of the film was lost because of dissolution; settings: resist film immersed in 2.38% aqueous solution of TMAH for 3 min
Method: (3) Inhibition of Dissolution in Alkali Developing Solution
The resist film formed in the evaluation 2 was immersed in a developing solution (2.38% aqueous solution of TMAH) for 3 min. The results were rated as “A” when no change was visually noticed in the state of film, and “C” when the surface was roughened or a part of the film was lost because of dissolution.

[2] = Alkali developability; design: key: A: the resist film dissolved completely and disappeared; C: the resist film remained not dissolved even in a slight amount; settings: tested on the corresponding polyphenol compound A before introducing the acid-dissociating group; film immersed in 2.38% aqueous TMAH for 10 s
Method: (5) Alkali Developability
A polyphenol compound A corresponding to each compound before introducing the acid-dissociating functional group was examined for its developability with an alkali developing solution.
A 10% by weight solution of each polyphenol compound A in PGMEA was spin-coated using a spin coater, to form a resist film of about 0.2 μm thick. After heating on a hot plate for 3 min at 110° C., the resist film was immersed in a 2.38% aqueous solution of TMAH for 10 s. The results were rated as “A” when the resist film dissolved completely and disappeared, and “C” when the resist film remained not dissolved even in a slight amount.

[3] = Solubility of compound in safety solvent; settings: safety solvent (PGMEA or EL) at 23° C.
Method: (1) Solubility of Compound in Safety Solvent
Each compound was tested for its solubility in safety solvent (PGMEA or EL) at 23° C. The solubility was rated as “A” when dissolved in an amount of 5% by weight or more, “B” when dissolved in an amount of 0.1% by weight or more but less than 5% by weight, and “C” when not dissolved in an amount of 0.1% by weight or more.

Row | SMILES | (3) Inhibition of dissolution in developing solution [1] | (5) Alkali developability [2] | (1) Solubility in safety solvent [3]
1 | O=C1c2cccc3cccc(c23)C1(c1ccc(O)cc1)c1ccc(OC2CCCCO2)cc1 (stereo not drawn) [Compound 8-2] | A | A | A (dissolved in an amount of 5% by weight or more)
2 | Oc1ccc2c(c1)Oc1cc(OC3CCCCO3)ccc1C2c1ccc(-c2ccccc2)cc1 (stereo not drawn) [Compound 10-2] | A | A | A (dissolved in an amount of 5% by weight or more)
3 | Cc1cc(C(C)(c2ccc(OC(C)OC3CCCCC3)c(C)c2)c2ccc3ccccc3c2)ccc1O (stereo not drawn) [Compound 5-5] | A | A | A (dissolved in an amount of 5% by weight or more)
4 | CCCCOC(=O)Oc1ccc2c(c1)Oc1cc(OC(=O)OCCCC)ccc1C2c1ccc(-c2ccccc2)cc1 [Compound 10-1] | A | A | A (dissolved in an amount of 5% by weight or more)
5 | CC(C)(C)OC(=O)Oc1ccc(C2(c3ccc(OC(=O)OC(C)(C)C)cc3)C(=O)c3cccc4cccc2c34)cc1 [Compound 8-4] | A | A | A (dissolved in an amount of 5% by weight or more)
6 | CC(C)(C)OC(=O)Oc1ccc2c(c1)Oc1cc(O)ccc1C21c2ccccc2-c2ccccc21 [Compound 11-1] | A | A | A (dissolved in an amount of 5% by weight or more)
7 | CC(C)(C)OC(=O)Oc1ccc(-c2cc(-c3ccc(OC(=O)OC(C)(C)C)cc3)cc(-c3ccc(OC(=O)OC(C)(C)C)cc3)c2)cc1 [Compound 14-4, reference compound] | A | A | A (dissolved in an amount of 5% by weight or more)
8 | CC(C)(C)OC(=O)Cc1cc(C2(c3cc(OC(=O)OC(C)(C)C)c(OC(=O)OC(C)(C)C)c(OC(=O)OC(C)(C)C)c3)c3ccccc3-c3ccccc32)cc(OC(=O)OC(C)(C)C)c1OC(=O)OC(C)(C)C [Compound 7-3] | A | A | A (dissolved in an amount of 5% by weight or more)
9 | CC(C)(C)OC(=O)Oc1ccc(C(C)(C)c2ccc(OC(=O)OC(C)(C)C)cc2)cc1 [Compound 14-1, reference compound] | – | A | C (not dissolved in an amount of 0.1% by weight or more)
10 | CCOC(C)Oc1ccc2c(c1)Oc1cc(O)ccc1C21c2ccccc2-c2ccccc21 (stereo not drawn) [Compound 11-3] | A | A | A (dissolved in an amount of 5% by weight or more)
11 | CC1(c2ccc3ccccc3c2)c2ccc(O)cc2Oc2cc(OC3CCCCC3)ccc21 (stereo not drawn) [Compound 9-1] | A | A | A (dissolved in an amount of 5% by weight or more)
12 | CC(C)(C)OC(=O)Oc1ccc(C(C)(c2ccc(O)cc2)c2ccc3ccccc3c2)cc1 (stereo not drawn) [Compound 5-8] | A | A | A (dissolved in an amount of 5% by weight or more)
13 | Cc1cc(C(C)(c2ccc(OC3CCCCO3)c(C)c2)c2ccc3ccccc3c2)ccc1O (stereo not drawn) [Compound 5-6] | A | A | A (dissolved in an amount of 5% by weight or more)
14 | O=C1c2ccccc2C(c2ccc(O)cc2)(c2ccc(OC3CCCCO3)cc2)c2ccccc21 (stereo not drawn) [Compound 7-5] | A | A | A (dissolved in an amount of 5% by weight or more)
15 | Cc1cc(C(C)(c2ccc(OC(=O)OC(C)(C)C)c(C)c2)c2ccc3ccccc3c2)ccc1O (stereo not drawn) [Compound 5-2] | A | A | A (dissolved in an amount of 5% by weight or more)
16 | CC(C)(C)OC(=O)Cc1cc(C(C)(c2ccc(OC(=O)OC(C)(C)C)c(OC(=O)OC(C)(C)C)c2)c2ccc3ccccc3c2)ccc1OC(=O)OC(C)(C)C (stereo not drawn) [Compound 5-3] | A | A | A (dissolved in an amount of 5% by weight or more)

Row | SMILES | (3) Inhibition of dissolution in developing solution [1] | (5) Alkali developability [2] | (1) Solubility in safety solvent [3]
17 | Oc1ccc(C(c2ccc(OC3CCCCO3)cc2)c2ccc(-c3ccccc3)cc2)cc1 (stereo not drawn) [Compound 6-1] | A | A | A (dissolved in an amount of 5% by weight or more)
18 | CCOC(C)Oc1ccc(C2(c3ccc(O)c(-c4ccccc4)c3)Cc3cccc4cccc2c34)cc1-c1ccccc1 (stereo not drawn) [Compound 8-5] | A | A | A (dissolved in an amount of 5% by weight or more)
19 | CC(C)(C)OC(=O)Oc1ccc(C(c2ccc(O)cc2)c2cccc3ccccc23)cc1 (stereo not drawn) [Compound 5-9] | A | A | A (dissolved in an amount of 5% by weight or more)
20 | Oc1ccc(C2(c3ccc(OC4CCCCO4)cc3)c3ccccc3-c3ccccc32)cc1 (stereo not drawn) [Compound 7-4] | A | A | A (dissolved in an amount of 5% by weight or more)
21 | CC(C)(C)OC(=O)Oc1cc(C2(c3ccc(OC(=O)OC(C)(C)C)c(OC(=O)OC(C)(C)C)c3)c3ccccc3-c3ccccc32)ccc1O [Compound 7-2] | A | A | A (dissolved in an amount of 5% by weight or more)
22 | Oc1ccc(C2(c3ccc(OC4CCCCO4)cc3)Cc3cccc4cccc2c34)cc1 (stereo not drawn) [Compound 8-1] | A | A | A (dissolved in an amount of 5% by weight or more)
23 | CC(C)(C)OC(=O)Oc1ccc2c(c1)Oc1cc(OC(=O)OC(C)(C)C)ccc1C21c2ccccc2-c2ccccc21 [Compound 11-2] | A | A | B (dissolved in an amount of 0.1% by weight or more but less than 5% by weight)
24 | CCOC(C)Oc1ccc2c(c1)Oc1cc(O)ccc1C21Cc2cccc3cccc1c23 (stereo not drawn) [Compound 12-1] | A | A | A (dissolved in an amount of 5% by weight or more)
25 | Cc1cc(C(C)(c2ccc(OC(=O)OC(C)(C)C)c(C)c2)c2ccc3ccccc3c2)ccc1OC(=O)OC(C)(C)C [Compound 5-1] | A | A | A (dissolved in an amount of 5% by weight or more)
26 | CCOC(C)Oc1ccc(C(C)(c2ccc(O)c(C3CCCCC3)c2)c2ccc3ccccc3c2)cc1C1CCCCC1 (stereo not drawn) [Compound 5-7] | A | A | A (dissolved in an amount of 5% by weight or more)
27 | CC(C)(C)OC(=O)Oc1ccc(C(c2ccc(OC(=O)OC(C)(C)C)cc2)c2ccc(OC(=O)OC(C)(C)C)cc2)cc1 [Compound 14-3, reference compound] | A | A | A (dissolved in an amount of 5% by weight or more)
28 | CC(C)(C)OC(=O)Oc1ccc(C2(c3ccc(OC(=O)OC(C)(C)C)c(OC(=O)OC(C)(C)C)c3)c3ccccc3-c3ccccc32)cc1OC(=O)OC(C)(C)C [Compound 7-1] | A | – | B (dissolved in an amount of 0.1% by weight or more but less than 5% by weight)
29 | CC(C)(C)OC(=O)Oc1ccc(C2(c3ccc(OC(=O)OC(C)(C)C)cc3)CCCCC2)cc1 [Compound 14-2, reference compound] | – | A | C (not dissolved in an amount of 0.1% by weight or more)
30 | Cc1cc(C(C)(c2ccc(O)c(C)c2)c2ccc3ccccc3c2)ccc1O [Compound 14-5, 1-(2-naphthyl)-1,1-bis(3-methyl-4-hydroxyphenyl)ethane, reference compound] | C | A | A (dissolved in an amount of 5% by weight or more)
31 | CCOC(C)Oc1ccc(C2(c3ccc(O)c(C4CCCCC4)c3)Cc3cccc4cccc2c34)cc1C1CCCCC1 (stereo not drawn) [Compound 8-3] | A | A | A (dissolved in an amount of 5% by weight or more)

From US20070059632A1, “Method of manufacturing a semiconductor device” (priority 2003, published 2007)
